Results as given in patent publication US20250115595A1, “INHIBITORS OF HYPOXIA-INDUCIBLE FACTORS” (The Johns Hopkins University, priority 2021, published 2025).

Tested on: cytokine mRNAs
Experiment: RT-qPCR array of mouse cytokines and chemokines in Hepa1-6 tumors
Type: in vivo
Conditions: Hepa1-6 tumors, vs vehicle
Protocol: Total RNA from Hepa1-6 tumors was analyzed using the RT2 Profiler PCR Array of Mouse Cytokines and Chemokines (Qiagen, catalog number 330231 PAMM-150ZA) according to the manufacturer's instructions.

Brc1ccc2c(-c3csc(-c4c[nH]c5c(Br)cccc45)n3)c[nH]c2c1 [Compound 32-134D, 4-(6-bromo-1H-indol-3-yl)-2-(7-bromo-1H-indol-3-yl)thiazole]
Adipoq mRNA Fold Change Test Group/Control Group: 0.43
Adipoq mRNA Fold Up- or Down-Regulation Test Group/Control Group: −2.31
Adipoq mRNA X axis (Log2(fold change)): −1.21
Bmp2 mRNA Fold Change Test Group/Control Group: 0.51
Bmp2 mRNA Fold Up- or Down-Regulation Test Group/Control Group: −1.95
Bmp2 mRNA X axis (Log2(fold change)): −0.96
Bmp4 mRNA Fold Change Test Group/Control Group: 0.64
Bmp4 mRNA Fold Up- or Down-Regulation Test Group/Control Group: −1.96
Bmp4 mRNA X axis (Log2(fold change)): −0.64
Bmp6 mRNA Fold Change Test Group/Control Group: 0.44
Bmp6 mRNA Fold Up- or Down-Regulation Test Group/Control Group: −2.27
Bmp6 mRNA X axis (Log2(fold change)): −1.18
Bmp7 mRNA Fold Change Test Group/Control Group: 0.70
Bmp7 mRNA Fold Up- or Down-Regulation Test Group/Control Group: −1.43
Bmp7 mRNA X axis (Log2(fold change)): −0.51
Cc15 mRNA Fold Change Test Group/Control Group: 0.92
Cc15 mRNA Fold Up- or Down-Regulation Test Group/Control Group: −1.09
Cc15 mRNA X axis (Log2(fold change)): −0.13
Cc120 mRNA Fold Change Test Group/Control Group: 0.42
Cc120 mRNA Fold Up- or Down-Regulation Test Group/Control Group: −2.41
Cc120 mRNA X axis (Log2(fold change)): −1.27
Ccl1 mRNA Fold Change Test Group/Control Group: 0.63
Ccl1 mRNA Fold Up- or Down-Regulation Test Group/Control Group: −1.58
Ccl1 mRNA X axis (Log2(fold change)): −0.66
Ccl2 mRNA Fold Change Test Group/Control Group: 1.35
Ccl2 mRNA Fold Up- or Down-Regulation Test Group/Control Group: 1.35
Ccl2 mRNA X axis (Log2(fold change)): 0.44
Ccl3 mRNA Fold Change Test Group/Control Group: 1.06
Ccl3 mRNA Fold Up- or Down-Regulation Test Group/Control Group: 1.06
Ccl3 mRNA X axis (Log2(fold change)): 0.09
Ccl4 mRNA Fold Change Test Group/Control Group: 0.72
Ccl4 mRNA Fold Up- or Down-Regulation Test Group/Control Group: −1.39
Ccl4 mRNA X axis (Log2(fold change)): −0.47
Ccl7 mRNA Fold Change Test Group/Control Group: 1.03
Ccl7 mRNA Fold Up- or Down-Regulation Test Group/Control Group: 1.03
Ccl7 mRNA X axis (Log2(fold change)): 0.04
Ccl11 mRNA Fold Change Test Group/Control Group: 1.03
Ccl11 mRNA Fold Up- or Down-Regulation Test Group/Control Group: 1.03
Ccl11 mRNA X axis (Log2(fold change)): 0.04
Ccl12 mRNA Fold Change Test Group/Control Group: 4.11
Ccl12 mRNA Fold Up- or Down-Regulation Test Group/Control Group: 4.11
Ccl12 mRNA X axis (Log2(fold change)): 2.04
Ccl17 mRNA Fold Change Test Group/Control Group: 0.68
Ccl17 mRNA Fold Up- or Down-Regulation Test Group/Control Group: −1.47
Ccl17 mRNA X axis (Log2(fold change)): −0.56
Ccl19 mRNA Fold Change Test Group/Control Group: 0.54
Ccl19 mRNA Fold Up- or Down-Regulation Test Group/Control Group: −1.86
Ccl19 mRNA X axis (Log2(fold change)): −0.89
Ccl22 mRNA Fold Change Test Group/Control Group: 0.31
Ccl22 mRNA Fold Up- or Down-Regulation Test Group/Control Group: −3.18
Ccl22 mRNA X axis (Log2(fold change)): −1.67
Ccl24 mRNA Fold Change Test Group/Control Group: 1.21
Ccl24 mRNA Fold Up- or Down-Regulation Test Group/Control Group: 1.21
Ccl24 mRNA X axis (Log2(fold change)): 0.27
Cd40lg mRNA Fold Change Test Group/Control Group: 0.52
Cd40lg mRNA Fold Up- or Down-Regulation Test Group/Control Group: −1.91
Cd40lg mRNA X axis (Log2(fold change)): −0.93
Cd70 mRNA Fold Change Test Group/Control Group: 0.24
Cd70 mRNA Fold Up- or Down-Regulation Test Group/Control Group: −4.19
Cd70 mRNA X axis (Log2(fold change)): −2.07
Cntf mRNA Fold Change Test Group/Control Group: 0.38
Cntf mRNA Fold Up- or Down-Regulation Test Group/Control Group: −2.61
Cntf mRNA X axis (Log2(fold change)): −1.39
Csf1 mRNA Fold Change Test Group/Control Group: 1.02
Csf1 mRNA Fold Up- or Down-Regulation Test Group/Control Group: 1.02
Csf1 mRNA X axis (Log2(fold change)): 0.03
Csf2 mRNA Fold Change Test Group/Control Group: 0.38
Csf2 mRNA Fold Up- or Down-Regulation Test Group/Control Group: −2.64
Csf2 mRNA X axis (Log2(fold change)): −1.40
Csf3 mRNA Fold Change Test Group/Control Group: 0.50
Csf3 mRNA Fold Up- or Down-Regulation Test Group/Control Group: −1.99
Csf3 mRNA X axis (Log2(fold change)): −0.99
Ctf1 mRNA Fold Change Test Group/Control Group: 0.19
Ctf1 mRNA Fold Up- or Down-Regulation Test Group/Control Group: −5.18
Ctf1 mRNA X axis (Log2(fold change)): −2.37
Cx3cl1 mRNA Fold Change Test Group/Control Group: 0.53
Cx3cl1 mRNA Fold Up- or Down-Regulation Test Group/Control Group: −1.89
Cx3cl1 mRNA X axis (Log2(fold change)): −0.92
Cxcl1 mRNA Fold Change Test Group/Control Group: 0.67
Cxcl1 mRNA Fold Up- or Down-Regulation Test Group/Control Group: 1.49
Cxcl1 mRNA X axis (Log2(fold change)): −0.57
Cxcl3 mRNA Fold Change Test Group/Control Group: 0.87
Cxcl3 mRNA Fold Up- or Down-Regulation Test Group/Control Group: −1.14
Cxcl3 mRNA X axis (Log2(fold change)): −0.19
Cxcl5 mRNA Fold Change Test Group/Control Group: 1.05
Cxcl5 mRNA Fold Up- or Down-Regulation Test Group/Control Group: 1.05
Cxcl5 mRNA X axis (Log2(fold change)): 0.07
Cxcl9 mRNA Fold Change Test Group/Control Group: 1.64
Cxcl9 mRNA Fold Up- or Down-Regulation Test Group/Control Group: 1.64
Cxcl9 mRNA X axis (Log2(fold change)): 0.71
Cxcl10 mRNA Fold Change Test Group/Control Group: 1.44
Cxcl10 mRNA Fold Up- or Down-Regulation Test Group/Control Group: 1.44
Cxcl10 mRNA X axis (Log2(fold change)): 0.53
Cxcl11 mRNA Fold Change Test Group/Control Group: 0.45
Cxcl11 mRNA Fold Up- or Down-Regulation Test Group/Control Group: −2.24
Cxcl11 mRNA X axis (Log2(fold change)): −1.16
Cxcl12 mRNA Fold Change Test Group/Control Group: 2.26
Cxcl12 mRNA Fold Up- or Down-Regulation Test Group/Control Group: 2.26
Cxcl12 mRNA X axis (Log2(fold change)): 1.17
Cxcl13 mRNA Fold Change Test Group/Control Group: 0.39
Cxcl13 mRNA Fold Up- or Down-Regulation Test Group/Control Group: −2.57
Cxcl13 mRNA X axis (Log2(fold change)): −1.36
Cxcl16 mRNA Fold Change Test Group/Control Group: 0.61
Cxcl16 mRNA Fold Up- or Down-Regulation Test Group/Control Group: −1.65
Cxcl16 mRNA X axis (Log2(fold change)): −0.72
Fasl mRNA Fold Change Test Group/Control Group: 0.59
Fasl mRNA Fold Up- or Down-Regulation Test Group/Control Group: −1.70
Fasl mRNA X axis (Log2(fold change)): −0.77
Gpi1 mRNA Fold Change Test Group/Control Group: 0.64
Gpi1 mRNA Fold Up- or Down-Regulation Test Group/Control Group: −1.57
Gpi1 mRNA X axis (Log2(fold change)): −0.65
Hc mRNA Fold Change Test Group/Control Group: 1.77
Hc mRNA Fold Up- or Down-Regulation Test Group/Control Group: 1.77
Hc mRNA X axis (Log2(fold change)): 0.82
Lif mRNA Fold Change Test Group/Control Group: 0.40
Lif mRNA Fold Up- or Down-Regulation Test Group/Control Group: −2.48
Lif mRNA X axis (Log2(fold change)): −1.31
Lta mRNA Fold Change Test Group/Control Group: 0.34
Lta mRNA Fold Up- or Down-Regulation Test Group/Control Group: −2.96
Lta mRNA X axis (Log2(fold change)): −1.57
Ltb mRNA Fold Change Test Group/Control Group: 0.63
Ltb mRNA Fold Up- or Down-Regulation Test Group/Control Group: −1.58
Ltb mRNA X axis (Log2(fold change)): −0.66
Mif mRNA Fold Change Test Group/Control Group: 1.12
Mif mRNA Fold Up- or Down-Regulation Test Group/Control Group: 1.12
Mif mRNA X axis (Log2(fold change)): 0.17
Mstn mRNA Fold Change Test Group/Control Group: 0.21
